Data published in patent US20050004167A1, “Branched chain amino acid-dependent aminotransferase inhibitors and their use in the treatment of neurodegenerative diseases” (WARNER-LAMBERT COMPANY LLC, priority 2001, published 2005).
Several values for one entry are separate records, joined by “and”; a condition that tells them apart may be missing. Identical values can stand only once.

Key:
rat BCAT cytosolic form = target: T1, rat BCAT cytosolic form (Rattus norvegicus, UniProt P54690); experiment: In vitro coupled enzyme assay (glutamate dehydrogenase, NADH formation), rat BCATc; format: biochemical; conditions: recombinant rat BCATc, 37° C., 25 mM phosphate buffer pH 7.8; several values in a cell = repeat determinations; read-out: RrBCATc
T1 construct: made in house; host or cells: E. coli BL21(DE3)
T1 sequence (P54690 1-411): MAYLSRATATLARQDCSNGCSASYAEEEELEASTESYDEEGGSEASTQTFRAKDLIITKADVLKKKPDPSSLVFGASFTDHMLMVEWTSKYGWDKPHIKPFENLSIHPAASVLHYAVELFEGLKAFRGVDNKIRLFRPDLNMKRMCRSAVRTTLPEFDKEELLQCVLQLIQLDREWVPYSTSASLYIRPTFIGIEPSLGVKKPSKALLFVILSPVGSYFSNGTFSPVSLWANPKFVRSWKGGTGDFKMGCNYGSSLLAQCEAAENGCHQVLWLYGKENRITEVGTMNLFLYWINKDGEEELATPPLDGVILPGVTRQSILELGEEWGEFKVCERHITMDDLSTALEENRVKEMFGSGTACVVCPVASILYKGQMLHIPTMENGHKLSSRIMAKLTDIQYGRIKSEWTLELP
Experimental: In vitro enzyme assay—human Branched Chain Amino Acid Aminotransferase cytosolic form (hBCATc) and mitochondrial form (hBCATm) as well as rat BCAT cytosolic form were assayed at 37° C. in 25 mM phosphate buffer pH 7.8. In addition, 2 mM DTT and 12.5 mM […] were added to the assay mixture. A coupling enzyme assay was used to monitor the production of glutamate. The formation of NADH from NAD+ at […] was followed on a 96-well plate Molecular Devices plate reader.
The following components were used in this coupled assay: 4 mM ADP, 1 mM NAD+, 750 μM L-Leucine, 500 μM α-ketoglutarate, 10 μM pyridoxal phosphate, 1 unit glutamate dehydrogenase, and 1.25 μg of the appropriate BCAT enzyme. Inhibitions by compounds were assayed by adding various concentrations to this coupled assay procedure as a DMSO stock up to a 5% v/v DMSO/buffer ratio.
Enzyme Preparation—humanBCATc and ratBCATc were expressed in BL21(DE3) cells. A growing culture of cells was induced with 1 mM IPTG at room temperature overnight. These cells were harvested by centrifugation at 10,000 g for 20 minutes. The supernatant was discarded, and the cells were stored at −80° C. until needed. The protein was purified by the following method. The cell paste was resuspended in extraction buffer (0.1 M phosphate, pH 8.0, with 0.01 M Tris-HCL and 5 mM TCEP and then lysed on a French Press at 1000 psi. The lysate was centrifuged at 10,000 g for 15 minutes, and the pellet was discarded. The supernatant was loaded onto a Hitrap Chelating column previously charged with 0.1 M NiSO4 and washed with 3 to 4 column volumes of extraction buffer. The column was then washed with 0.01 Tris, pH 7.5, 10% glycerol, 150 mM NaCl, 5 mM TCEP for two column volumes. The column was then further washed with two column volumes of 0.1 M phosphate, pH 6.0, 0.01 M Tris, 10% glycerol and 750 mM NaCl. Finally, the column was washed with two column volumes of the same buffer plus 50 mM imidazole. The BCAT enzyme was then eluted with the same buffer but with 350 mM imidazole. The eluant was then dialyzed overnight against 10 mM phosphate buffer pH 8.0, 10% glycerol, and 5 mM TCEP. The dialyzed protein was then loaded onto a Q-sepharose column and eluted using a salt gradient. Active fractions were collected and further purified on a Superose-12 column to yield pure BCAT protein.

[1] = target: T2, human Branched Chain Amino Acid Aminotransferase cytosolic form (hBCATc) (Homo sapiens, UniProt P54687); experiment: In vitro coupled enzyme assay (glutamate dehydrogenase, NADH formation), human BCATc; format: biochemical; conditions: recombinant human BCATc, 37° C., 25 mM phosphate buffer pH 7.8; several values in a cell = repeat determinations; read-out: RhBCATc
T2 construct: made in house; host or cells: E. coli BL21(DE3)
T2 sequence (P54687 1-386): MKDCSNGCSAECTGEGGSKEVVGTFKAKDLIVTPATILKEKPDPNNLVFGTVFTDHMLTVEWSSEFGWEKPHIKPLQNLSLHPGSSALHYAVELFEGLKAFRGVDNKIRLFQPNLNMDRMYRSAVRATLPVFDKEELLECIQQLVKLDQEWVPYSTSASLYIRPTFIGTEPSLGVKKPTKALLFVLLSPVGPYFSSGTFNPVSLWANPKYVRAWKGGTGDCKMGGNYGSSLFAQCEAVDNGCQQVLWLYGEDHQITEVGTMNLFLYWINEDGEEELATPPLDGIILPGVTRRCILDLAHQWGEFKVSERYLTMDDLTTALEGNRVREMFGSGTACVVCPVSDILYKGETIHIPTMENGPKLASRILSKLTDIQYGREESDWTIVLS
Method in brief: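 At 37 °C in 25 mM phosphate pH 7.8 with 2 mM DTT, 1.25 μg His-tag-purified E. coli-expressed BCAT transaminated 750 μM L-leucine with 500 μM α-ketoglutarate and 10 μM PLP. Glutamate was coupled via glutamate dehydrogenase (1 mM NAD+, 4 mM ADP) to NADH formation at 340 nm. Compounds were added in DMSO up to 5% v/v.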

Row | IC50 (rat BCAT cytosolic form) | IC50 [1] | SMILES
1 | 0.33 µM | 5.1 µM | O=C(NNS(=O)(=O)c1ccccc1)c1cc2cc([N+](=O)[O-])ccc2o1 [Example 34, 2-Benzofurancarboxylic acid, 5-nitro-, 2-(phenylsulfonyl)hydrazide]
2 | 1.89 µM | 14.4 µM | O=C(NNS(=O)(=O)c1ccccc1Br)c1cc2cc(Cl)cc(Cl)c2o1 [Example 73, 2-Benzofurancarboxylic acid, 5,7-dichloro 2-[(2-bromophenyl)sulfonyl]-hydrazide]
3 | 0.11 µM | 19.6 µM | Nc1ccc2oc(C(=O)NNS(=O)(=O)c3ccccc3)cc2c1 [Example 91, 2-Benzofurancarboxylic acid, 5-amino-, 2-(phenylsulfonyl)hydrazide]
4 | 0.1 µM | 3.23 µM | COc1c(C(=O)NNS(=O)(=O)c2ccccc2)oc2ccc(-c3ccccc3)cc12 [Example 65, 2-Benzofurancarboxylic acid, 3-methoxy-5-phenyl-, 2-(phenylsulfonyl)hydrazide]
5 | 1.16 µM | 41.1 µM | Cc1cccc2oc(C(=O)NNS(=O)(=O)c3ccccc3)cc12 [Example 87, 2-Benzofurancarboxylic acid, 4-methyl-, 2-(phenylsulfonyl)hydrazide]
6 | 1.1 µM | 12.1 µM | O=C(NNS(=O)(=O)c1ccccc1F)c1ccc2oc3ccccc3c2c1 [Example 92, 2-Dibenzofurancarboxylic acid, 2-[(2-fluorophenyl)sulfonyl]hydrazide]
7 | 0.3 µM | 3 µM | O=C(NNS(=O)(=O)c1ccccc1)c1cc2cc(Cl)ccc2o1 [Example 8, 5-Chloro-benzofuran-2-carboxylic acid 2-(phenylsulfonyl)hydrazide]
8 | 0.35 µM | 6.15 µM and 3 µM | Cc1ccc2oc(C(=O)NNS(=O)(=O)c3ccccc3)cc2c1 [Example 77, Benzofurancarboxylic acid, 5-methyl-, 2-(phenylsulfonyl)hydrazide]
9 | 56.7 µM | 58 µM | CCCCCc1ccc(S(=O)(=O)NNC(=O)c2cnc3ccccc3c2)cc1 [Example 122, 3-Quinolinecarboxylic acid, 2-[(4-pentylphenyl)sulfonyl)hydrazide]
10 | 0.3 µM | 2.9 µM | O=C(NNS(=O)(=O)c1cccc(Br)c1)c1ccc2oc3ccccc3c2c1 [Example 95, 2-Dibenzofurancarboxylic acid, 2-[(3-bromophenyl)sulfonyl]hydrazide]
11 | 7.5 µM | 41 µM | COc1ccc(Br)cc1S(=O)(=O)NNC(=O)c1cc2cccc(OC)c2o1 [Example 107, 2-Benzofurancarboxylic acid, 7-methoxy-, 2-[(5-bromo-2-methoxyphenyl)-sulfonyl]hydrazide]
12 | 0.25 µM | 2.62 µM | Cc1cccc(S(=O)(=O)NNC(=O)c2cc3cc(C)ccc3o2)c1 [Example 80, 2-Benzofurancarboxylic acid, 5-methyl-, 2-([3-methylphenyl)sulfonyl]hydrazide]
13 | 5.29 µM | 66.3 µM | COc1c(C(=O)NNS(=O)(=O)c2ccc(F)cc2)oc2c(OC)cccc12 [Example 63, 2-Benzofurancarboxylic acid, 3,7-dimethoxy-, 2-[(4-fluorophenyl)sulfonyl]-hydrazide]
14 | 2.18 µM and 3.3 µM | 17.9 µM and 29 µM | O=C(NNS(=O)(=O)c1ccccc1)c1ccc2c(c1)CCO2 [Example 9, 2,3-Dihydro-benzofuran-5-carboxylic acid 2-(phenylsulfonyl)hydrazide]
15 | 5.2 µM | 59.9 µM | O=C(NNS(=O)(=O)c1ccc(F)c(Cl)c1)c1ccc2ccccc2c1 [Example 115, 2-Naphthalenecarboxylic acid, 2-[(3-chloro-4-fluorophenyl)sulfonyl]hydrazide]
16 | 0.18 µM | 2.9 µM and 1.4 µM | O=C(NNS(=O)(=O)c1ccccc1)c1ccc2oc3ccccc3c2c1 [Example 1, Dibenzofuran-2-carboxylic acid 2-(phenylsulfonyl)hydrazide]
17 | 6.2 µM | 14.6 µM | Cc1ccc(S(=O)(=O)NNC(=O)c2ccc3ccccc3c2)cc1 [Example 112, 2-Naphthalenecarboxylic acid, 2-[(4-methylphenyl)sulfonyl]hydrazide]
18 | 2.5 µM | 17.8 µM | O=C(NNS(=O)(=O)c1ccccc1)c1cc2ccccc2o1 [Example 146, Benzofuran-2-carboxylic acid 2-(phenylsulfonyl)hydrazide]
19 | > 100 µM | > 100 µM | Cc1ccc2oc(C(=O)NNS(=O)(=O)c3ccccc3)c(C)c2c1 [Example 89, 2-Benzofurancarboxylic acid, 3,5-dimethyl-, 2-(phenylsulfonyl)hydrazide]
20 | 0.51 µM | 3.28 µM | Cc1ccc2oc(C(=O)NNS(=O)(=O)c3cccc(Cl)c3C)cc2c1 [Example 82, 2-Benzofurancarboxylic acid, 5-methyl-, 2-[(3-chloro-2-methylphenyl)sulfonyl]-hydrazide]
21 | 0.72 µM | 11.1 µM | O=C(NNS(=O)(=O)c1cccc(Cl)c1Cl)c1ccc2oc3ccccc3c2c1 [Example 110, 2-Dibenzofurancarboxylic acid, 2-[(2,3-dichlorophenyl)sulfonyl]hydrazide]
22 | 0.53 µM | 4.1 µM | O=C(NNS(=O)(=O)c1ccccc1C(F)(F)F)c1ccc2ccccc2c1 [Example 113]
23 | 0.87 µM | 9.66 µM | Cc1ccc2oc(C(=O)NNS(=O)(=O)c3cccc(Br)c3)cc2c1 [Example 83, 2-Benzofurancarboxylic acid, 5-methyl-, 2-[3-(bromophenyl)sulfonyl]hydrazide]
24 | 36.4 µM | 67.5 µM | O=C(NNS(=O)(=O)c1cc(C(F)(F)F)ccc1Cl)c1ccc2oc3ccccc3c2c1 [Example 97]
25 | 0.19 µM | 3.31 µM | COc1c(C(=O)NNS(=O)(=O)c2cccc(C)c2)oc2c(OC)cccc12 [Example 64, 2-Benzofurancarboxylic acid, 3,7-dimethoxy-, 2-[(3-methylphenyl)sulfonyl]-hydrazide]
26 | 0.31 µM | 1.74 µM | Cc1ccc2oc(C(=O)NNS(=O)(=O)c3ccccc3C)cc2c1 [Example 81, 2-Benzofurancarboxylic acid, 5-methyl-, 2-[2-(methylphenyl)sulfonyl]hydrazide]
27 | 0.22 µM | 16.9 µM and 1.81 µM | Cc1ccc2oc(C(=O)NNS(=O)(=O)c3ccccc3C(F)(F)F)cc2c1 [Example 79, 2-Benzofurancarboxylic acid, 5-methyl-, 2-[[2-(trifluoromethyl)phenyl]sulfonyl]-hydrazide]
28 | 0.59 µM | 11.5 µM | O=C(NNS(=O)(=O)c1ccccc1)c1cc2cccc(Cl)c2o1 [Example 7, 7-Chloro-benzofuran-2-carboxylic acid 2-(phenylsulfonyl)hydrazide]
